Data reported in patent publication EP0306300B1, “Pyrrolo(1,2-a)imidazole and imidazo(1,2-a)pyridine derivatives and their use as 5-lipoxygenase pathway inhibitors” (SMITHKLINE BEECHAM CORPORATION, priority 1987, dated 1989).

How the values were obtained:
[1] = system: arachidonic acid-induced edema in mice; assay: Arachidonic acid-induced mouse ear inflammation (ear swelling); type: in vivo, male Balb/c mice; conditions: mouse, po; read-out: AAEE(MOUSE ED50 mg/kg (po))
Experimental: In the tests used to determine activity as 5-lipoxygenase pathway inhibitors, male Balb/c mice (20-28 g), were used. All mice were obtained from Charles River Breeding Laboratories, Kingston, N.Y. Within a single experiment, mice were age matched.
Reagents were employed as follows: Compounds of Formula (I) were each used as the free base. The compounds were homogenized in 0.5% tragacanth. Compounds were administered by […] at the indicated dose in a final volume of 10 ml/kg.
Arachidonic acid in acetone (2 mg/20 »l) was applied to the inner surface of the left ear. The thickness of both ears was then measured with a dial micrometer one hour after treatment, and the data were expressed as the change in thickness (10⁻³ cm) between treated and untreated ears.
Test compounds were given orally in acid/saline at the times indicated in the text prior to the topical application of arachidonic acid.
Dermatol., 82, 367-371 (1984)].

[2] = Log D determination by high pressure liquid chromatography; type: physicochemical; conditions: hplc ods, mobile phase MeOH:H2O, pH 7.4, read-out: (Log D) (Lipophilicity)
Experimental: The procedure used to determine the log D's listed on Table VI was as follows. A 20 »l sample was injected into a Shandon Hypersil ODS, 5» (100 mm x 4.6 mm ID) column and was eluted using a mobile phase of […] MeOH:H₂O (The aqueous portion was .01 M in KH₂PO₄ and adjusted to pH 7.4 with KOH after mixing the MeOH), at a flow rate of 2 ml per minute. Eluting peaks were detected by UV absorbance at […]. All samples were made up at 0.1 mg/ml. (Retentions were identical at 0.01 mg/ml.)
The data was analyzed by determining the regression line corresponding to the log k′ vs. literature log P of the reference standards.
The reference standards and their literature log P's included NaNO₂, 0.0; acetanalide, 1.16; acetophenone, 1.66; anisole, 2.08; chlorobenzene, 2.84; benzophenone, 3.18; anthracene, 4.45; and pentachlorobenzene, 5.12.

cynomolgus monkeys [3] = assay: CNS activity / oral toxicity in cynomolgus monkeys; conditions: cynomolgus monkey, in vivo
Experimental: Additional monkeys tolerated repeated doses of 45 mg/kg or 30 mg/kg and one animal tolerated an escalating dose schedule of 30-90-120 mg/kg.
The two monkeys administered 400 mg/kg were repeatedly administered this dose for 7 consecutive days; each animal experienced emesis within 1 to 5 hours of dosing after the 1st, 3rd and 4th doses, whereas only the female experienced emesis after the 5th, 6th and 7th doses. A complete necropsy, serum clinical chemistry, hematology and histological examination was completed on both monkeys.

cynomolgus monkeys [4] = assay: CNS activity / oral toxicity in cynomolgus monkeys; type: in vivo
[5] = Cytochrome P-450 inhibition (ethoxycoumarin-O-deethylase activity, phenobarbital-induced microsomes); conditions: rat
[6] = cynomolgus monkey, in vivo, po, 60 mg/kg

| Structure (SMILES) | ED50 [1] [mg/kg] | chromatographic logD [2] | Adverse CNS activity (cynomolgus monkeys [3]) | clinical effects (cynomolgus monkeys [4]; [6]) | time of death after dosing (cynomolgus monkeys [4]; [6]) [h] | clinical effects (cynomolgus monkeys [4]; cynomolgus monkey, in vivo, po, 90 mg/kg) | clinical effects (cynomolgus monkeys [4]; single oral dose of 90 mg/kg, 1 female, 1 male, 90 mg/kg) | IC50 ([5]; liver microsomes) [nM] | time of death after dosing (cynomolgus monkeys [4]; cynomolgus monkey, in vivo, 90 mg/kg) [h] | clinical effects (cynomolgus monkeys [4]; oral 90 mg/kg/day, two consecutive days, 1 female, 1 male, 90 mg/kg/day) | IC50 ([5]; microsomes) [nM] |
| --- | --- | --- | --- | --- | --- | --- | --- | --- | --- | --- | --- |
| COc1ccc(-c2nc3n(c2-c2ccncc2)CCC3)cc1 [Compound C, 2-(4-methoxyphenyl)-3-(4-pyridyl)-6,7-dihydro-[5H]-pyrrolo[1,2-a]imidazole] | 28 | 2.14 | +++ | sedation, loss of consciousness and death of one (male) | ≤ 1 | death of both animals | caused convulsions and death | 21400 | – | – | – |
| Fc1ccc(-c2nc3n(c2-c2ccncc2)CCS3)cc1 [Compound A, 5-(4-pyridyl)-6-(4-fluorophenyl)-2,3-dihydroimidazo[2,1-b]thiazole] | 27 | 2.19 | +++ | – | – | – | – | 600 | 1 to 5 | caused convulsions and death | 900 |
